melting point: 178 °C
Compound: CCCc1nn(C)c2c(NCc3ccc(OC)c(Cl)c3)nc(CCC(=O)O)nc12 [Example 2, 3-[7-(3-chloro-4-methoxybenzylamino)-1-methyl-3-propyl-1H-pyrazolo-[4,3-d]pyrimidin-5-yl]propionic acid]

Reference: US20040063730A1, “Pharmacuetical formulation comprising puyrazolo[4,-3-d]pyrimidines and antithrombotics, calcium antagonists, or prostaglandins or prostaglandin derivatives” (priority 2000, published 2004)
